Source: patent US20160185774A1, “Anti-Infective Compounds” (priority 2013, published 2016)
Converted amounts (≈) assume the structure as drawn.

test system: M. tuberculosis; assay: microbe, parasite or virus in culture; assay type: cell-based; conditions: Mycobacterium tuberculosis, 120 h; read-out: QUM (MIC80)

CCc1nc2cc(Cl)ccn2c1C(=O)NCc1ccc(OCC23CC4CC(CC(C4)C2)C3)cc1 [Compound 320] and CCc1nc2ccc(Cl)cn2c1C(=O)NCc1ccc(OCC23CC4CC(CC(C4)C2)C3)cc1 [Compound 319] cannot be ordered by MIC80: less than 1 µM for the first, less than 1 µM for the second.

CCc1nc2cc(Cl)ccn2c1C(=O)NCc1ccc(N2CCN(c3ccc(OC)cc3)CC2)cc1 [Compound 46] and CCc1nc2cc(C)ccn2c1C(=O)NCc1ccc(N2CCN(c3ccc(OC)cc3)CC2)cc1 [Compound 54] cannot be ordered by MIC80: less than 1 µM for the first, less than 1 µM for the second.

First: CCc1nc2c(F)cccn2c1C(=O)NCc1ccc(N2CCN(c3ccc(C(F)(F)F)cc3)CC2)cc1 [Compound 161]
Second: CCc1nc2c(C(F)(F)F)cccn2c1C(=O)NCc1ccc(N2CCN(c3ccc(F)cc3)CC2)cc1 [Compound 198]
The MIC80 of the first is lower: less than 1 µM for the first, 1 to 20 µM (≈ 0.526 to 10.5 µg/mL) for the second.

CCc1nc2c(C)cccn2c1C(=O)NCc1ccc(N2CCN(c3ccc(OC)cc3)CC2)cc1 [Compound 38] and CCc1nc2c(Br)cccn2c1C(=O)NCc1ccc(N2CCN(c3ccc(OC)cc3)CC2)cc1 [Compound 95] cannot be ordered by MIC80: less than 1 µM for the first, less than 1 µM for the second.

CCc1nc2c(Br)cccn2c1C(=O)NCc1ccc(N2CCN(c3ccc(OC(F)(F)F)cc3)CC2)cc1 [Compound 94] and CCc1nc2c(C)cccn2c1C(=O)NCc1ccc(N2CCN(c3ccc(OC(F)(F)F)cc3)CC2)cc1 [Compound 44] cannot be ordered by MIC80: less than 1 µM for the first, less than 1 µM for the second.

CCc1nc2cc(OC)ccn2c1C(=O)NCc1ccc(N2CCC(c3ccc(C)cc3)CC2)cc1 [Compound 23] and CCc1nc2cc(OC)ccn2c1C(=O)NCc1ccc(N2CCC(c3ccc(OC)cc3)CC2)cc1 [Compound 92] cannot be ordered by MIC80: less than 1 µM for the first, less than 1 µM for the second.

CCc1nc2cc(F)ccn2c1C(=O)NCc1ccc(N2CCN(c3ccccc3)CC2)cc1 [Compound 69] and CCc1nc2ccccn2c1C(=O)NCc1ccc(N2CCN(c3ccccc3)CC2)cc1 [Compound 62] cannot be ordered by MIC80: less than 1 µM for the first, less than 1 µM for the second.

CCc1nc2ccc(Br)cn2c1C(=O)NCc1ccc(N2CCC(c3ccc(C)cc3)CC2)cc1 [Compound 79] and CCc1nc2ccc(Cl)cn2c1C(=O)NCc1ccc(N2CCC(c3ccc(C)cc3)CC2)cc1 [Compound 7] cannot be ordered by MIC80: less than 1 µM for the first, less than 1 µM for the second.

CCc1nc2ccc(OC)cn2c1C(=O)NCc1ccc(N2CCC(c3ccc(OC(F)(F)F)cc3)CC2)cc1 [Compound 182] and CCc1nc2ccc(OC)cn2c1C(=O)NCc1ccc(N2CCN(c3ccc(OC(F)(F)F)cc3)CC2)cc1 [Compound 107] cannot be ordered by MIC80: less than 1 µM for the first, less than 1 µM for the second.

CCc1nc2cc(F)ccn2c1C(=O)NCc1ccc(N2CCC(c3ccc(Cl)cc3)CC2)cc1 [Compound 17] and CCc1nc2cc(F)ccn2c1C(=O)NCc1ccc(N2CCC(c3ccc(OC)cc3)CC2)cc1 [Compound 14] cannot be ordered by MIC80: less than 1 µM for the first, less than 1 µM for the second.

CCc1nc2c(F)cccn2c1C(=O)NCc1ccc(N2CCN(c3ccc(C)cc3)CC2)cc1 [Compound 31] and CCc1nc2c(Cl)cccn2c1C(=O)NCc1ccc(N2CCN(c3ccc(C)cc3)CC2)cc1 [Compound 160] cannot be ordered by MIC80: less than 1 µM for the first, less than 1 µM for the second.

CCc1nc2c(Cl)cccn2c1C(=O)NCc1ccc(N2CCC(c3ccc(OC(F)(F)F)cc3)CC2)cc1 [Compound 224] and CCc1nc2c(C)cccn2c1C(=O)NCc1ccc(N2CCC(c3ccc(OC(F)(F)F)cc3)CC2)cc1 [Compound 181] cannot be ordered by MIC80: less than 1 µM for the first, less than 1 µM for the second.

CCc1nc2ccc(Cl)cn2c1C(=O)NCc1ccc(N2CCC(c3ccc(C(=O)OC)cc3)CC2)cc1 [Compound 344] and CCc1nc2ccc(Cl)cn2c1C(=O)NCc1ccc(N2CCC(C(=O)c3ccc(OC(F)(F)F)cc3)CC2)cc1 [Compound 241] cannot be ordered by MIC80: less than 1 µM for the first, less than 1 µM for the second.

CCc1nc2c(OC)cccn2c1C(=O)NCc1ccc(N2CCC(c3ccc(Cl)cc3)CC2)cc1 [Compound 212] and CCc1nc2c(OC)cccn2c1C(=O)NCc1ccc(N2CCC(c3ccc(C)cc3)CC2)cc1 [Compound 215] fall in the same range of MIC80: 1 to 20 µM (≈ 0.503 to 10.1 µg/mL) for the first, 1 to 20 µM (≈ 0.483 to 9.65 µg/mL) for the second.

CCc1nc2cc(F)ccn2c1C(=O)NCc1ccc(N2CCN(c3ccc(Cl)cc3)CC2)cc1 [Compound 90] and CCc1nc2cc(C)ccn2c1C(=O)NCc1ccc(N2CCN(c3ccc(Cl)cc3)CC2)cc1 [Compound 59] cannot be ordered by MIC80: less than 1 µM for the first, less than 1 µM for the second.

CCc1nc2ccc(Cl)cn2c1C(=O)NCc1ccc(N2CCC(C(=O)OCCN3CCOCC3)CC2)cc1 [Compound 336] and CCc1nc2ccc(Cl)cn2c1C(=O)NCc1ccc(N2CC[C@@H](Oc3ccc(Cl)cc3)C2)cc1 [Compound 340] cannot be ordered by MIC80: less than 1 µM for the first, less than 1 µM for the second.

CCc1nc2cc(C(F)(F)F)ccn2c1C(=O)NCc1ccc(N2CCN(c3ccc(OC)cc3)CC2)cc1 [Compound 96] and CCc1nc2cc(C(F)(F)F)ccn2c1C(=O)NCc1ccc(N2CCN(c3ccc(OC(F)(F)F)cc3)CC2)cc1 [Compound 203] cannot be ordered by MIC80: less than 1 µM for the first, less than 1 µM for the second.

Cc1nc2cc(Cl)ccn2c1C(=O)NCc1ccc(N2CCC(c3ccc(C(F)(F)F)cc3)CC2)cc1 [Compound 298] and Cc1nc2cc(F)ccn2c1C(=O)NCc1ccc(N2CCC(c3ccc(C(F)(F)F)cc3)CC2)cc1 [Compound 349] cannot be ordered by MIC80: less than 1 µM for the first, less than 1 µM for the second.

CCc1nc2cc(C(F)(F)F)ccn2c1C(=O)NCc1ccc(N2CCC(c3ccc(C)cc3)CC2)cc1 [Compound 24] and CCc1nc2cc(C)ccn2c1C(=O)NCc1ccc(N2CCC(c3ccc(C(F)(F)F)cc3)CC2)cc1 [Compound 51] cannot be ordered by MIC80: less than 1 µM for the first, less than 1 µM for the second.

CCc1nc2ccc(C)cn2c1C(=O)NCc1ccc(N2CCN(c3ccc(OC(F)(F)F)cc3)CC2)cc1 [Compound 55] and CCc1nc2cc(Br)ccn2c1C(=O)NCc1ccc(N2CCN(c3ccc(OC(F)(F)F)cc3)CC2)cc1 [Compound 192] cannot be ordered by MIC80: less than 1 µM for the first, less than 1 µM for the second.

First: CCc1nc2c(Br)cccn2c1C(=O)NCc1ccc(N2CCN(c3ccc(Cl)cc3)CC2)cc1 [Compound 199]
Second: CCc1nc2c(OC)cccn2c1C(=O)NCc1ccc(N2CCN(c3ccc(Cl)cc3)CC2)cc1 [Compound 103]
The MIC80 of the first is lower: less than 1 µM for the first, 1 to 20 µM (≈ 0.504 to 10.1 µg/mL) for the second.

Cc1nc2ccc(Cl)cn2c1C(=O)NCc1ccc(N2CCC(c3ccc(F)cc3)CC2)cc1 [Compound 325] and Cc1nc2cc(Cl)ccn2c1C(=O)NCc1ccc(N2CCC(c3ccc(F)cc3)CC2)cc1 [Compound 297] cannot be ordered by MIC80: less than 1 µM for the first, less than 1 µM for the second.

CCc1nc2ccccn2c1C(=O)NCc1ccc(N2CCN(c3ccc(C(F)(F)F)cc3)CC2)cc1 [Compound 29] and CCc1nc2cc(Cl)ccn2c1C(=O)NCc1ccc(N2CCN(c3ccc(C(F)(F)F)cc3)CC2)cc1 [Compound 204] cannot be ordered by MIC80: less than 1 µM for the first, less than 1 µM for the second.

First: CCc1nc2ccc(Cl)cn2c1C(=O)NCc1ccc(NC(=O)NC(C)(C)C)cc1 [Compound 278]
Second: CCc1nc2cc(Cl)ccn2c1C(=O)NCc1ccc(C(=O)Nc2ccc(F)cc2)cc1 [Compound 302]
The MIC80 of the first is higher: 1 to 20 µM (≈ 0.428 to 8.56 µg/mL) for the first, less than 1 µM for the second.

First: CCc1nc2c(C(F)(F)F)cccn2c1C(=O)NCc1ccc(N2CCN(c3ccc(OC(F)(F)F)cc3)CC2)cc1 [Compound 202]
Second: CCc1nc2cc(OC)ccn2c1C(=O)NCc1ccc(N2CCN(c3ccc(OC(F)(F)F)cc3)CC2)cc1 [Compound 10]
The MIC80 of the first is higher: 1 to 20 µM (≈ 0.592 to 11.8 µg/mL) for the first, less than 1 µM for the second.

CCc1nc2c(C(F)(F)F)cccn2c1C(=O)NCc1ccc(N2CCC(c3ccc(F)cc3)CC2)cc1 [Compound 78] and CCc1nc2c(C(F)(F)F)cccn2c1C(=O)NCc1ccc(N2CCC(c3ccc(Cl)cc3)CC2)cc1 [Compound 22] fall in the same range of MIC80: 1 to 20 µM (≈ 0.525 to 10.5 µg/mL) for the first, 1 to 20 µM (≈ 0.541 to 10.8 µg/mL) for the second.

CCc1nc2ccc(C)cn2c1C(=O)NCc1ccc(N2CCC(c3ccc(C(F)(F)F)cc3)CC2)cc1 [Compound 140] and CCc1nc2cc(F)ccn2c1C(=O)NCc1ccc(N2CCC(c3ccc(C(F)(F)F)cc3)CC2)cc1 [Compound 164] cannot be ordered by MIC80: less than 1 µM for the first, less than 1 µM for the second.

CCc1nc2c(Cl)cccn2c1C(=O)NCc1ccc(N2CCC(c3ccc(OC)cc3)CC2)cc1 [Compound 98] and CCc1nc2c(OC)cccn2c1C(=O)NCc1ccc(N2CCC(c3ccccc3)CC2)cc1 [Compound 177] cannot be ordered by MIC80: less than 1 µM for the first, less than 1 µM for the second.

Cc1nc2ccc(Cl)cn2c1C(=O)NCc1ccc(N2CCC(c3ccc(OC(F)(F)F)cc3)CC2)cc1 [Compound 328] and CCc1nc2c(F)cccn2c1C(=O)NCc1ccc(N2CCC(c3ccc(C(F)(F)F)cc3)CC2)cc1 [Compound 12] cannot be ordered by MIC80: less than 1 µM for the first, less than 1 µM for the second.

Going from CCc1nc2cc(Cl)ccn2c1C(=O)NCc1csc(-c2ccc(OC(F)(F)F)cc2)n1 [Compound 279] to CCc1nc2cc(Cl)ccn2c1C(=O)NCc1ccc2nc[nH]c2c1 [Compound 276], the MIC80 rises from less than 1 µM to greater than 20 µM.

Compared with CCc1nc2c(OC)cccn2c1C(=O)NCc1ccc(N2CCN(c3ccc(OC)cc3)CC2)cc1 [Compound 58], CCc1nc2ccccn2c1C(=O)NCc1ccc(N2CCN(c3ccc(C)cc3)CC2)cc1 [Compound 28] is lower in MIC80: 1 to 20 µM (≈ 0.5 to 9.99 µg/mL) for the first, less than 1 µM for the second.

CCc1nc2ccc(F)cn2c1C(=O)NCc1ccc(N2CCN(c3ccc(C(F)(F)F)cc3)CC2)cc1 [Compound 76] and CCc1nc2ccc(Br)cn2c1C(=O)NCc1ccc(N2CCN(c3ccc(C(F)(F)F)cc3)CC2)cc1 [Compound 156] cannot be ordered by MIC80: less than 1 µM for the first, less than 1 µM for the second.

CCc1nc2cc(F)ccn2c1C(=O)NCc1ccc(N2CCN(c3ccc(C(F)(F)F)cc3)CC2)cc1 [Compound 229] and CCc1nc2cc(C(F)(F)F)ccn2c1C(=O)NCc1ccc(N2CCN(c3ccc(C(F)(F)F)cc3)CC2)cc1 [Compound 206] cannot be ordered by MIC80: less than 1 µM for the first, less than 1 µM for the second.

CCc1nc2c(F)cccn2c1C(=O)NCc1ccc(N2CCC(c3ccccc3)CC2)cc1 [Compound 167] and CCc1nc2c(C)cccn2c1C(=O)NCc1ccc(N2CCC(c3ccccc3)CC2)cc1 [Compound 73] cannot be ordered by MIC80: less than 1 µM for the first, less than 1 µM for the second.

CCc1nc2ccc(Cl)cn2c1C(=O)NCc1ccc(NC23CC4CC(CC(C4)C2)C3)cc1 [Compound 321] and CCc1nc2cc(Cl)ccn2c1C(=O)NCc1ccc(NC2C3CC4CC(C3)CC2C4)cc1 (stereo not drawn) [Compound 324] cannot be ordered by MIC80: less than 1 µM for the first, less than 1 µM for the second.

CCc1nc2ccc(OC)cn2c1C(=O)NCc1ccc(N2CCN(c3ccc(C(F)(F)F)cc3)CC2)cc1 [Compound 210] and CCc1nc2ccc(Br)cn2c1C(=O)NCc1ccc(N2CCN(c3ccc(C)cc3)CC2)cc1 [Compound 101] cannot be ordered by MIC80: less than 1 µM for the first, less than 1 µM for the second.

CCc1nc2cc(C(F)(F)F)ccn2c1C(=O)NCc1ccc(N2CCC(c3ccccc3)CC2)cc1 [Compound 3] and CCc1nc2ccc(C)cn2c1C(=O)NCc1ccc(N2CCC(c3ccccc3)CC2)cc1 [Compound 216] cannot be ordered by MIC80: less than 1 µM for the first, less than 1 µM for the second.

CCc1nc2c(Br)cccn2c1C(=O)NCc1ccc(N2CCC(c3ccccc3)CC2)cc1 [Compound 168] was tested, and the MIC80 was 1 to 20 µM (≈ 0.517 to 10.3 µg/mL).
